Like-named read-outs stand apart in the source and are kept apart here. Marks after values point to notes of the source that are not given here.
Columns and labels:
[1] = Critical micellization concentration (CMC) of surfactants; assay type: physicochemical; conditions: no reference given
Description: As noted, the perfume burst is affected not only by the perfume properties, but also by properties of the formulation in which the perfume is found. Thus, the number and type of surfactant micelles found in a surfactant solution also has an effect. […] The critical micellization concentration is defined as the surfactant concentration at which micelles begin to form from unassociated surfactant monomers (M. J. Rosen, Surfactants and Interfacial Phenomena, 2nd Ed., 1989). Conversely, in a surfactant with low critical micelle concentration (e.g., one where micelles do form easily or, stated differently, don't break apart as readily once formed), a perfume, being generally more hydrophobic, tends to stay in the surfactant more readily. As a result, the perfume will tend not to “burst” (increase perfume headspace) as readily and, to achieve more headspace, more dilution may be required. The CMC of the surfactant system also affects “perfume burst”. Thus, for example, a surfactant system of relatively low CMC (e.g., sodium lauryl ether sulfate, also known as SLES) lowers the PBI and can greatly reduce the expected “perfume burst” on dilution. By contrast, surfactant systems of relatively higher CMC (e.g., sodium laurate compared to SLES) would raise PBI and can thus increase “perfume burst” on dilution.

[2] = 50° C.; cited from earlier work
[3] = Fragrance burst in shower liquids with different sodium laurate concentrations (FIG. 6); assay type: physicochemical; conditions: 5% sodium laurate product compared with 10, 15 (and 20) wt.%
Protocol: Limonene (PBI=12.2) was tested in shower liquids containing sodium laurate at 5, 10, 15 and 20 wt.%, γ-Methyl lonone and menthone were tested in sodium laurate at 5, 10 and 15 wt.% (FIG. 6).

[4] = Fragrance burst in shower liquids with surfactants of different CMC (FIG. 8); assay type: physicochemical; conditions: 5% sodium laureth sulfate (CMC=0.0011 wt/wt) compared with 5% sodium laurate (CMC=0.005 wt/wt)
Protocol: Limonene and γ-Methyl lonone were tested in two different shower liquid samples. One product was formulated with 5% sodium laurate (CMC=0.005 wt/wt) and the second with 5% sodium laureth sulfate (CMC=0.0011 wt/wt) (FIG. 8).

[5] = Dilution behaviour of components of a twelve-component perfume mixture in 5 wt. % sodium laurate, normalized GC headspace (FIG. 9); assay type: physicochemical; conditions: component of perfume mixture in 5 wt. % sodium laurate
Protocol: A typical fully formulated perfume used in a commercial product, e.g., personal wash formulation, usually is a multi-component composition in which the properties of each perfume component can vary dramatically. A typical perfume mixture in a 5 wt. % sodium laurate formulation was tested for its “perfume burst” behaviour upon dilution. The PBI values of the components in this perfume mixture vary from a large negative number (e.g., benzyl acetate, PBI=−819; PEA, PBI=−200 in sodium laurate solution) to a large positive number (e.g., gamma-methyl-ionone, PBI=1,677 in sodium laurate solution). The dilution behaviour of each component in this perfume mixture is shown in FIG. 9 (the graph represents a normalized GC measurement so the amount of burst of each molecule is clearly indicated). In this perfume mixture of twelve components, the dilution behaviour of each component is different. Each component has a unique dilution curve (GC headspace vs. dilution factor) governed by the factors (hydrophobicity, volatility, etc) discussed previously. […] For those perfumes with a moderate positive PBI (e.g., limonene, PBI=12; p-cymene=12.2 in sodium laurate solution), the perfume headspaces increases 1-2 times upon dilution.

## CCCCCCCC(=O)NCCC[N+](C)(C)CC(=O)[O-] [Caprylamidopropyl betaine]
[1]
  CMC: 0.00032 wt./wt.

## Sodium laureth sulfonate (3EO)
[2]
  CMC: 0.00084*** wt./wt.

## CC(=O)/C(C)=C/C1C(C)=CCCC1(C)C (stereo not shown) [γ-methyl ionone]
[3]
  dilutions needed to reach maximum fragrance burst: reached with fewer dilutions in the 5% soap product
[4]
  overall fragrance burst: lower overall fragrance burst
[5]
  perfume headspace behaviour upon dilution: as high as seven times

## Sodium laureth sulfonate (2EO)
[2]
  CMC: 0.0011*** wt./wt.

## C=C(C)[C@H]1CC=C(C)CC1 [Limonene]
[3]
  dilutions needed to reach maximum fragrance burst: reached with fewer dilutions in the 5% soap product
[4]
  overall fragrance burst: lower overall fragrance burst

## CC(=O)OCc1ccccc1 [Benzyl Acetate]
[5]
  perfume headspace behaviour upon dilution: decrease upon dilution

## CC(C)[C@@H]1CC[C@@H](C)CC1=O [Menthone]
[3]
  dilutions needed to reach maximum fragrance burst: reached with fewer dilutions in the 5% soap product
